Measured values reported in patent US20050080054A1, “Treating androgen decline in aging male (ADAM)-associated conditions with SARMS” (priority 2002, published 2005).

Experiments:
Format in all cases: in vivo, rat
[1] = Plasma testosterone levels in male rats of varying hormonal status; conditions: 0.5 mg/day; for Plasma testosterone levels: osmotic pump, 14 days, n = 5
Source text: (§1) Compound VI and Compound VII were synthesized and characterized in the laboratory of Dr. Duane Miller at the University of Tennessee, Memphis, Tenn. Male Sprague-Dawley rats were purchased from Harlan Biosciences (Indianapolis, Ind.). The animals were maintained on a 12-h cycle of light and dark with food and water available ad libitum. All animal studies were reviewed and approved by the Animal Care and Use Committee of The Ohio State University, and conformed to the Principles of Laboratory Animal Care (NIH publication #85-23, revised 1985). Immature male Sprague-Dawley rats weighing 187 to 214 g were randomly distributed into 9 groups of 5 animals. One day before the initiation of drug treatment, groups 4 through 6 and groups 7 through 9 received unilateral or bilateral orchidectomy, respectively, via a midline scrotal incision. […] All drugs given to animals were freshly prepared as solutions in polyethylene glycol 300 (PEG 300). Groups 4 and 7 received treatment with vehicle alone (i.e., PEG 300). Animals in groups 3, 6, and 9 received testosterone propionate (TP, 0.5 mg/day) via implantation of subdermal osmotic pumps (Model 2002, Durect Corporation, Palo Alto, Calif.). Animals in groups 2, 5, and 8 received Compound VI or Compound VII (0.5 mg/day) via implantation of subdermal osmotic pumps. After 14 days of drug treatment, rats were weighed, anesthetized, and sacrificed. Blood samples were collected by venipuncture of the abdominal aorta. Plasma samples were analyzed for testosterone, FSH, LH and osteocalcin. Testosterone concentrations were measured by AniLytics Inc. (Gaithersburg, Md.). FSH and LH levels were measured by the National Hormone and Peptide Program (Dr. A F Parlow, UCLA, CA). Plasma osteocalcin levels were determined using a commercially available rat osteocalcin EIA kit from Biomedical Technologies Inc. (Stoughton, Mass.). The ventral prostates, seminal vesicles, and levator ani muscle were removed and weighed. Osmotic pumps were also removed from animals to check for correct pump operation. The weights of all organs were normalized to body weight, and analyzed for any statistically significant differences between groups using single-factor ANOVA with the alpha value set a priori at p<0.05. The weights of prostates and seminal vesicles were used as indices for evaluation of androgenic activity, and the levator ani muscle weight was used to evaluate the anabolic activity. Statistical analyses of parameters from complete blood count or serum chemical profiling, wherever applicable, were performed by single-factor ANOVA with the alpha value set a priori at p<0.05.

[2] = Plasma LH levels in male rats of varying hormonal status; conditions: 0.5 mg/day; for Plasma LH levels: 14 days, n = 5
Source text: as §1

[3] = system: female rats after ovariectomy; test: Bone biomechanical strength, cortical thickness, trabecular density and muscle mass in ovariectomized and intact female rats
Method: One hundred ten female rats were assigned to one of eleven treatment groups. Groups 1-8 were ovariectomized on day one of the study. Groups 9-11 were intact animals. Groups 1-6 received Compound VI by daily subcutaneous injection at doses of 0.1, 0.3, 0.5, 0.75, 1.0, and 3 mg/day, respectively. Groups 7 and 11 received dihydrotestosterone (DHT) at a dose of 1 mg/day. Groups 8 and 9 were ovariectomized and intact control groups, respectively. Group 10 received Compound VI at a dose of 1.0 mg/day. All animals were treated for 120 days. Bone mineral content (BMC) was determined using dual energy x-ray absorptiometry (DEXA) on days 1, 30, 60, 90, and 120.

SMILES: CC(=O)Nc1ccc(OC[C@](C)(O)C(=O)Nc2ccc([N+](=O)[O-])c(C(F)(F)F)c2)cc1 [Compound VI]
- Plasma testosterone levels ([1]; castrated male rats): 0.066 ± 0.148 ng/mL
- Plasma testosterone levels ([1]; hemi-orchidectomized male rats): 1.404 ± 0.810 ng/mL
- Plasma testosterone levels ([1]; intact male rats): 1.830 ± 0.510 ng/mL
- effect on testosterone levels ([1]; intact, hemi-orchidectomized or castrated male rats): did not affect testosterone levels
- effect on plasma LH levels ([2]; TP statement for castrated male rats): no effect
- Plasma LH levels ([2]; castrated male rats): 8.644 ± 2.799 ng/mL
- Plasma LH levels ([2]; hemi-orchidectomized male rats): 0.124 ± 0.115 ng/mL
- Plasma LH levels ([2]; intact male rats): 0.026 ± 0.037 ng/mL
- biomechanical strength of the L5 vertebra and femur ([3]; FIG. 11): increased biomechanical strength
- cortical thickness in the femoral mid-shaft ([3]; FIG. 12): increased cortical thickness
- trabecular bone loss in the distal femur ([3]; OVX animals): only partially prevented trabecular bone loss
- muscle mass ([3]; gonadectomized and intact animals): increased muscle mass
- trabecular density of the distal femur ([3]; intact animals): proliferative effect
